Assay results taken from US20140341846A1, “METHODS OF INHIBITING PHOTORECEPTOR APOPTOSIS” (The Regents of The University of Michigan, priority 2009, published 2014).
Entries after “also recorded” stand apart in the source; their conditions may differ.

Assays:
Jurkat cells = Jurkat cells (Zou et al. Nat Med. 2007); cited from earlier work
[1] = system: photoreceptors (outer nuclear layer); assay: TUNEL staining 3 days after retinal detachment (Met study); type: in vivo, Brown Norway rats; settings: 50 μg subretinal
Method: (§1) Retinal-RPE separation was created in Brown Norway rats by subretinal injection of 1% hyaluronic acid. Met12, derived from the Fas-binding extracellular domain of the oncoprotein Met, was injected into the subretinal space at the time of separation. […] Extrinsic apoptotic pathway was induced in 661W cells using a Fas-activating antibody in the presence or absence of Met12. Caspase 3, caspase 8, and caspase 9 activities were measured with calorimetric and luminescent assays in retinal extracts and cell lysates. Terminal deoxynucleotidyl transferase dUTP nick-end labeling (TUNEL) was performed in retinal sections 3 days after separation. Histology was performed in retinal sections 2 months after retinal detachment.
(§2) Rodents were anesthetized with a 50:50 mix of ketamine (100 mg/mL) and xylazine (20 mg/mL), and pupils were dilated with topical phenylephrine (2.5%) and tropicamide (1%). […]
(§3) Photoreceptor cell apoptosis was quantified as the percentage of total cells in the outer nuclear layer (ONL) that were TUNEL positive. […] The total number of cells in the ONL was measured in a similar fashion. The total thickness of the retina (measured from the outer edge of the ONL to the inner limiting membrane) was measured in three places in each of three non-overlapping high power fields (40×) at the maximal height of the retinal detachment per section and averaged for each eye. […]

[2] = system: Fas-mediated caspase 8 activation in 661W cells; assay: Fas-Ab induced caspase 8 activity in 661W cells; type: cell-based; settings: 500 ng/ml Fas-Ab, 48 hours after treatment
Method: The 661W cell line was maintained in Dulbecco's modified Eagle's medium containing 10% fetal bovine serum, 300 mg/L glutamine, 32 mg/L putrescine, 40 μL/L of β-mercaptoethanol, and 40 μg/L of both hydrocortisone 21-hemisuccinate and progesterone. The media also contained penicillin (90 units/ml) and streptomycin (0.09 mg/ml). Cells were grown at 37° C. in a humidified atmosphere of 5% CO2 and 95% air.
In cell culture experiments, caspase 8 activity was measured by a commercially available luminescent tetrapeptide (LETD) cleavage assay kit (Promega, Madison, Wis.). The 661W cells were seeded in 96-well plates (Nunc, Rochester, N.Y.) at 1500 cells/well for 24 hours prior to treatment. Cells were pre-treated with various concentrations of Met12, mMet, or vehicle for 1 hour prior to treatment with 500 ng/ml of Fas-agonistic Jo2 monoclonal antibody (BD Biosciences, San Jose, Calif.). Caspase 8 activity was measured at various time points by incubating the cells with the pro-luminescent substrate in 96-well plates following manufacturer's instructions. Controls included untreated cells and wells with no cells. Luminescence was measured in a plate reader luminometer (Turner Biosystems, Sunnyvale Calif.).

caspase 3 = assay: Caspase 3 activity in detached retinas (Met study); type: in vivo, Brown Norway rats; settings: 50 μg subretinal
Method: as §1
(§4) Rodents were anesthetized with a 50:50 mix of ketamine (100 mg/mL) and xylazine (20 mg/mL), and pupils were dilated with topical phenylephrine (2.5%) and tropicamide (1%). A 20-gauge microvitreoretinal blade (Walcott Scientific, Marmora, N.J.) was used to create a sclerotomy 2 mm posterior to the limbus, carefully avoiding lens damage. […]
(§5) Caspase 3, caspase 8 and caspase 9 activities were measured with colorimetric tetrapeptide cleavage assay kits, per the manufacturer's instructions (Bio-Vision, Mountain View, Calif.). […] Absorbance was measured at 405 nm in a microplate reader (Spectra-MAX 190, Molecular Devices, Sunnyvale, Calif.). […]

[3] = system: photoreceptors (outer nuclear layer); assay: ONL cell counts and thickness 2 months after retinal detachment (Met study); type: in vivo, Brown Norway rats; settings: 50 μg subretinal at time of detachment; after 2 months of retinal detachment
Method: as §1, §2, §3

caspase 9 = assay: Caspase 9 activity in detached retinas (Met study); type: in vivo, Brown Norway rats; settings: 50 μg subretinal
Method: as §1, §4, §5

caspase 8 = assay: Caspase 8 activity in detached retinas (Met study); type: in vivo, Brown Norway rats; settings: 50 μg subretinal at time of detachment; 24 hours after detachment
Method: as §1, §4, §5

Sequence | protection from FasL induced apoptosis (Jurkat cells) | fewer TUNEL-positive photoreceptors as compared with mMet-injected separated retinas [1] [%] | effect on Fas-Ab induced caspase 8 activation [2] | reduction of caspase 3 activity in detached retinas (caspase 3; after 24 hours) | increase in ONL cell counts compared with mMet-injected retinas [3] [%] | increase in ONL thickness measurements compared with mMet-injected retinas [3] [%] | reduction of caspase 9 activity in detached retinas (caspase 9; after 24 hours) | reduction of caspase 8 activity in detached retinas (caspase 8) | effect on caspase 3 activity level in detached retinas (caspase 3; 24 hours after detachment) | effect on caspase 9 activity level in detached retinas (caspase 9; 24 hours after detachment) | caspase 8 activity in detached retinas compared to attached retinas (caspase 8)
HHIYLGAVNYIY [Met12] | protects | ~77 | inhibited by Met12 treatment in a dose dependent manner; also recorded: full inhibition | approximately 50% | 37 | 27 | approximately 50% | approximately 50% | – | – | –
HHGSDHERNYIY [mMet, reference compound] | – | – | no effect | – | – | – | – | – | did not affect | did not affect | significantly increased
